# According to patent publication US9233920B2, “Process for the preparation of dihydropyrrole derivatives” (Syngenta Participations AG, priority 2010, dated 2016):
# Legend:
# Type in all cases: in vivo
# Heliothis virescens = Heliothis virescens (tobacco budworm) egg/larval test on artificial diet in 24-well microtiter plate; conditions: Heliothis virescens eggs 0-24 h old, 4 days incubation, egg mortality, larval mortality, growth regulation
# Procedure: (§1) These examples illustrate the comparative insecticidal and acaricidal properties of compounds A23 and A24. The tests were performed as follows:
# Heliothis virescens (Tobacco Budworm):
# Eggs (0-24 h old) were placed in 24-well microtiter plate on artificial diet and treated with test solutions at an application rate of 12.5 ppm (concentration in well 18 ppm) by pipetting. After an incubation period of 4 days, samples were checked for egg mortality, larval mortality, and growth regulation.
# Diabrotica balteata = Diabrotica balteata (corn root worm) L2 larvae test on artificial diet in 24-well microtiter plate; conditions: 5 days incubation, larval mortality and growth regulation
# Procedure: as §1
# Diabrotica balteata (Corn Root Worm):
# A 24-well microtiter plate (MTP) with artificial diet was treated with test solutions at an application rate of 12.5 ppm (concentration in well 18 ppm) by pipetting. After drying, the MTP's were infested with L2 larvae (6-10 per well). After an incubation period of 5 days, samples were checked for larval mortality and growth regulation.
# Thrips tabaci = Thrips tabaci (onion thrips) sunflower leaf disc spray test; conditions: Thrips tabaci mixed ages on sunflower leaf discs, 7 days incubation, mortality
# Procedure: as §1
# Thrips tabaci (Onion Thrips):
# […] After drying, the leaf discs were infested with an […] population of mixed ages. After an incubation period of 7 days, samples were checked for mortality.
Compound,% Control at 12.5 ppm (Heliothis virescens) [%],% Control at 200 ppm (Heliothis virescens) [%],% Control at 12.5 ppm (Diabrotica balteata) [%],% Control at 200 ppm (Diabrotica balteata) [%],% Control at 12.5 ppm (Thrips tabaci) [%],% Control at 200 ppm (Thrips tabaci) [%]
"Cc1cc(C2=NC[C@@](c3cc(Cl)cc(Cl)c3)(C(F)(F)F)C2)ccc1C(=O)NC1CS(=O)(=O)C1 [Compound A23, 4-[(3R)-3-(3,5-dichlorophenyl)-3-(trifluoromethyl)-2,4-dihydropyrrol-5-yl]-N-(1,1-dioxothietan-3-yl)-2-methyl-benzamide]",100,100,100,100,100,100
"Cc1cc(C2=NC[C@](c3cc(Cl)cc(Cl)c3)(C(F)(F)F)C2)ccc1C(=O)NC1CS(=O)(=O)C1 [Compound A24, 4-[(3S)-3-(3,5-dichlorophenyl)-3-(trifluoromethyl)-2,4-dihydropyrrol-5-yl]-N-(1,1-dioxothietan-3-yl)-2-methyl-benzamide]",50,100,0,100,40,100
